Values quoted from earlier work, collected in publication PMC4269829 (Cancer cell, 2014).

Tests used:
[1] = tested on: ALK variant with L1196M mutation; settings: crizotinib-resistant L1196M mutation; ref Friboulet et al., 2014
[2] = tested on: ALK variant with I1171T mutation; settings: crizotinib-resistant I1171T mutation; ref Friboulet et al., 2014
ALK with F1174 mutation = settings: ref Friboulet et al., 2014

Cc1cc(Nc2ncc(Cl)c(Nc3ccccc3S(=O)(=O)C(C)C)n2)c(OC(C)C)cc1C1CCNCC1 [ceritinib]
inhibition of ALK variant (in words) [1]: inhibit | inhibition of ALK variant (in words) [2]: inhibit | overcoming resistance of ALK mutation (in words) (ALK with F1174 mutation): not to overcome resistance
